Patent US12157717B2, “Compounds for the treatment of bovine or swine respiratory disease” (Intervet Inc., priority 2018, dated 2024)
Converted amounts (≈) assume the structure as drawn.

How the values were obtained:
Type in all cases: cell-based
[1] = test system: Pasteurella multocida PM 6267 (P 2225 (L386)); assay: MIC, broth-microdilution (CLSI), strain PM 6267; conditions: Pasteurella multocida P 2225 (L386), reference strain (mouse infection strain)
Method: (§1) The Minimum inhibitory concentrations (MIC) of compounds according to the invention for a number of veterinary bacterial pathogens were determined by the broth-microdilution method according to CLSI document VETO 1-A4.
(§2) Microdilution trays containing a doubling dilution series of the test compound were used for the tests. The MIC results were interpreted according to the CLSI documents VET01-S3. The lowest concentration of compound at which no visible growth (i.e. no turbidity) detected by the unaided eye was recorded as the MIC.

[2] = test system: Mannheimia haemolytica MH 6357 (M7/2); assay: MIC, broth-microdilution (CLSI), strain MH 6357; conditions: Mannheimia haemolytica M7/2, reference strain (cattle infection strain)
Method: as §1, §2

[3] = test system: Pasteurella multocida PM 10775 (080130003051); assay: MIC, broth-microdilution (CLSI), strain PM 10775; conditions: Pasteurella multocida 080130003051, BRD field isolate
Method: as §1, §2

[4] = test system: Mannheimia haemolytica MH 12587 (1071), macrolide-resistance: erm+, E+; assay: MIC, broth-microdilution (CLSI), strain MH 12587; conditions: Mannheimia haemolytica 1071, BRD field isolate
Method: as §1, §2

[5] = test system: Pasteurella multocida PM 6391 (ATCC 43137); assay: MIC, broth-microdilution (CLSI), strain PM 6391; conditions: Pasteurella multocida ATCC 43137, reference strain
Method: as §1, §2

[6] = test system: Mannheimia haemolytica MH 6374 (ATCC 33396); assay: MIC, broth-microdilution (CLSI), strain MH 6374; conditions: Mannheimia haemolytica ATCC 33396, reference strain
Method: as §1, §2

[7] = test system: Mannheimia haemolytica MH 13093 (XB0472-6014.1); assay: MIC, broth-microdilution (CLSI), strain MH 13093; conditions: Mannheimia haemolytica XB0472-6014.1, BRD field isolate
Method: as §1, §2

[8] = test system: Pasteurella multocida PM 12080 (IV102277-0093); assay: MIC, broth-microdilution (CLSI), strain PM 12080; conditions: Pasteurella multocida IV102277-0093, BRD field isolate
Method: as §1, §2

[9] = test system: Mannheimia haemolytica MH 10720 (154); assay: MIC, broth-microdilution (CLSI), strain MH 10720; conditions: Mannheimia haemolytica 154, BRD field isolate
Method: as §1, §2

[10] = test system: Mannheimia haemolytica MH 13065 (XB0446-6003.9); assay: MIC, broth-microdilution (CLSI), strain MH 13065; conditions: Mannheimia haemolytica XB0446-6003.9, BRD field isolate
Method: as §1, §2

Compound	MIC PM 6267 [1] [µM]	MIC MH 6357 [2] [µM]	MIC PM 10775 [3] [µM]	MIC MH 12587 [4] [µM]	MIC PM 6391 [5] [µM]	MIC MH 6374 [6] [µM]	MIC MH 13093 [7] [µM]	MIC PM 12080 [8] [µM]	MIC MH 10720 [9] [µM]	MIC MH 13065 [10] [µM]
CNC(=O)C(C(=O)NO)N(C)C(=O)c1ccc(C#Cc2ccc(CNCCOC)cc2)cc1 (stereo not shown) [Compound 21]	1.6 (≈ 0.724 µg/mL)	3.1 (≈ 1.4 µg/mL)	0.4 (≈ 0.181 µg/mL)	12.5 (≈ 5.66 µg/mL)	3.1 (≈ 1.4 µg/mL)	6.3 (≈ 2.85 µg/mL)	12.5 (≈ 5.66 µg/mL)	1.6 (≈ 0.724 µg/mL)	1.6 (≈ 0.724 µg/mL)	3.1 (≈ 1.4 µg/mL)
CNC(=O)C(C(=O)NO)N(C)C(=O)c1ccc(C#Cc2ccc(CN3CCOCC3)cc2)cc1 (stereo not shown) [Compound 22]	≤0.1	1.6 (≈ 0.743 µg/mL)	≤0.1	6.3 (≈ 2.93 µg/mL)	0.4 (≈ 0.186 µg/mL)	1.6 (≈ 0.743 µg/mL)	3.1 (≈ 1.44 µg/mL)	0.4 (≈ 0.186 µg/mL)	0.4 (≈ 0.186 µg/mL)	3.1 (≈ 1.44 µg/mL)
CNC(=O)C(C(=O)NO)N(C)C(=O)c1ccc(C#Cc2ccc(CNCc3ccccc3)cc2)cc1 (stereo not shown) [Compound 23]	0.4 (≈ 0.194 µg/mL)	1.6 (≈ 0.775 µg/mL)	≤0.1	3.1 (≈ 1.5 µg/mL)	1.6 (≈ 0.775 µg/mL)	0.8 (≈ 0.388 µg/mL)	1.6 (≈ 0.775 µg/mL)	0.8 (≈ 0.388 µg/mL)	0.4 (≈ 0.194 µg/mL)	1.6 (≈ 0.775 µg/mL)
CNC(=O)C(C(=O)NO)N(C)C(=O)c1ccc(C#Cc2ccc(CNCc3ccc(OC)cc3)cc2)cc1 (stereo not shown) [Compound 24]	0.4 (≈ 0.206 µg/mL)	1.6 (≈ 0.823 µg/mL)	≤0.1	12.5 (≈ 6.43 µg/mL)	1.6 (≈ 0.823 µg/mL)	1.6 (≈ 0.823 µg/mL)	6.3 (≈ 3.24 µg/mL)	1.6 (≈ 0.823 µg/mL)	0.8 (≈ 0.412 µg/mL)	3.1 (≈ 1.6 µg/mL)
CNC(=O)C(C(=O)NO)N(C)C(=O)c1ccc(C#Cc2ccc(CN3CCCC3)cc2)cc1 (stereo not shown) [Compound 25]	1.6 (≈ 0.718 µg/mL)	6.3 (≈ 2.83 µg/mL)	0.4 (≈ 0.179 µg/mL)	12.5 (≈ 5.61 µg/mL)	3.1 (≈ 1.39 µg/mL)	6.3 (≈ 2.83 µg/mL)	12.5 (≈ 5.61 µg/mL)	1.6 (≈ 0.718 µg/mL)	3.1 (≈ 1.39 µg/mL)	6.3 (≈ 2.83 µg/mL)
CNC(=O)C(C(=O)NO)N(C)C(=O)c1ccc(C#Cc2ccc(CNC3CCCC3)cc2)cc1 (stereo not shown) [Compound 26]	0.8 (≈ 0.37 µg/mL)	6.3 (≈ 2.91 µg/mL)	0.4 (≈ 0.185 µg/mL)	25 (≈ 11.6 µg/mL)	1.6 (≈ 0.74 µg/mL)	12.5 (≈ 5.78 µg/mL)	25 (≈ 11.6 µg/mL)	1.6 (≈ 0.74 µg/mL)	3.1 (≈ 1.43 µg/mL)	12.5 (≈ 5.78 µg/mL)
CCCNCc1ccc(C#Cc2ccc(C(=O)N(C)C(C(=O)NC)C(=O)NO)cc2)cc1 (stereo not shown) [Compound 27]	0.2 (≈ 0.0873 µg/mL)	6.3 (≈ 2.75 µg/mL)	0.4 (≈ 0.175 µg/mL)	12.5 (≈ 5.46 µg/mL)	3.1 (≈ 1.35 µg/mL)	6.3 (≈ 2.75 µg/mL)	12.5 (≈ 5.46 µg/mL)	1.6 (≈ 0.698 µg/mL)	1.6 (≈ 0.698 µg/mL)	6.3 (≈ 2.75 µg/mL)
CNC(=O)C(C(=O)NO)N(C)C(=O)c1ccc(C#Cc2ccc(CNCc3ccccn3)cc2)cc1 (stereo not shown) [Compound 28]	≤0.1	6.3 (≈ 3.06 µg/mL)	0.2 (≈ 0.0971 µg/mL)	12.5 (≈ 6.07 µg/mL)	3.1 (≈ 1.51 µg/mL)	3.1 (≈ 1.51 µg/mL)	6.3 (≈ 3.06 µg/mL)	1.6 (≈ 0.777 µg/mL)	1.6 (≈ 0.777 µg/mL)	3.1 (≈ 1.51 µg/mL)
CNC(=O)C(C(=O)NO)N(C)C(=O)c1ccc(C#Cc2ccc(CNCc3nccs3)cc2)cc1 (stereo not shown) [Compound 29]	0.8 (≈ 0.393 µg/mL)	6.3 (≈ 3.1 µg/mL)	0.2 (≈ 0.0983 µg/mL)	12.5 (≈ 6.14 µg/mL)	3.1 (≈ 1.52 µg/mL)	3.1 (≈ 1.52 µg/mL)	12.5 (≈ 6.14 µg/mL)	1.6 (≈ 0.787 µg/mL)	1.6 (≈ 0.787 µg/mL)	6.3 (≈ 3.1 µg/mL)
C#CCNCc1ccc(C#Cc2ccc(C(=O)N(C)C(C(=O)NC)C(=O)NO)cc2)cc1 (stereo not shown) [Compound 30]	0.4 (≈ 0.173 µg/mL)	0.8 (≈ 0.346 µg/mL)	≤0.1	3.1 (≈ 1.34 µg/mL)	1.6 (≈ 0.692 µg/mL)	0.8 (≈ 0.346 µg/mL)	1.6 (≈ 0.692 µg/mL)	0.8 (≈ 0.346 µg/mL)	0.4 (≈ 0.173 µg/mL)	1.6 (≈ 0.692 µg/mL)
